Test results published in patent US20110306665A1, “COSMETIC PREPARATION, METHOD FOR PRODUCING SAME, COMPOSITION FOR COSMETIC PREPARATIONS, COSMETIC PREPARATION CONTAINING THE COMPOSITION FOR COSMETIC PREPARATIONS AND METHOD FOR PRODUCING SAME, AND CLEANSER FOR INDUSTRIAL USE” (The Nisshin OilliO Group, Ltd., priority 2009, published 2011).

Legend:
[1] = Cleansing properties: removal of ink of an oil paint pen from the skin (panel); format: in vivo, human; settings: black oil paint pen line on inside of arm, rubbed thirty times at about 200 g; seven panelists
Method: In Example 13, the cleansing properties and the low irritation properties of the PDO-C8/C10 diester obtained from Synthesis Example 2 as a cosmetic preparation composition for a cosmetic preparation to be used for the purpose of removing an ink of an oil paint pen (ink remover ingredient) from the skin, were evaluated. The insides of the arms of seven panelists were washed with soap and water, and in addition, the washed surfaces were wiped with ethanol and naturally dried. Thereafter, using a black oil paint pen (Product Name: […] product of Zebra Co., Ltd.), a line was painted respectively on the washed surfaces of the insides of their arms. Next, the painted line was evenly divided into seven equal areas. […] From the proportion of the line painted with the oil paint pen which had been able to be removed by this removal operation, the cleansing properties of the respective cosmetic preparation compositions as an ink remover ingredient were evaluated in accordance with the following criteria. The results of their averages are shown in Table 14. <Evaluation Criteria of Cleansing Properties> Excellent: High cleansing properties, meaning that a proportion of 75 to 100% in the line painted with the oil paint pen was able to be removed. Good: Relatively high cleansing properties, meaning that a proportion of 50 to 75% in the line painted with the oil paint pen was able to be removed. Moderate: Some cleansing properties, meaning that only a proportion of 25 to 50% in the line painted with the oil paint pen was able to be removed. Poor: Weak cleansing properties, meaning that only a proportion of 0 to 25% in the line painted with the oil paint pen was able to be removed.

[2] = Low irritation properties: 24 hours airtight application with Finn Chamber (panel); format: in vivo, human
Method: Moreover, the low irritation properties of the respective cosmetic preparation compositions as an ink remover ingredient were evaluated in the following manner. The insides of the arms of seven panelists were washed with soap and water, and in addition, the washed surfaces were wiped with ethanol and naturally dried. Next, each of the thus washed surfaces was evenly divided into seven equal areas, to which 0.01 g of the respective cosmetic preparation compositions of Examples 13 and 13A to 13D, and Comparative Examples 8 and 9, was applied airtightly by using Finn Chamber (a product of Epitest Ltd Oy). After 24 hours, the Finn Chamber and the cosmetic preparation compositions were taken off. After 1 hour, the condition of the skin was observed. The low irritation properties of the respective cosmetic preparation compositions as an ink remover ingredient were evaluated in accordance with the following criteria. <Evaluation Criteria of Low Irritation Properties> Good: No change was found in the skin of the airtightly applied part. Moderate: A slight rash was found in the skin of the airtightly applied part.

[3] = Cleansing properties of industrial use cleansers: oil paint pen ink on coated steel panel; settings: industrial use cleanser; black oil paint pen line on coated steel panel, rubbed thirty times at about 200 g
Method: The cleansing properties of the respective industrial use cleansers as an agent to remove an oil soluble colorant from a coated steel panel were evaluated in the following manner.
First, an electro-galvanized steel panel was coated with commercially available automotive paints, namely, a primer surfacer (Product Name: Primer White (a product of Musashi Holt Co., Ltd.)), a white automotive paint (Product Name: Antirust Paint (Color No. 041) (a product of Musashi Holt Co., Ltd.)), and a clear paint (Product Name: Topcoat Clear (a product of Musashi Holt Co., Ltd.)), by spraying according to the usage instruction of each product, and dried at 25° C. for 24 hours. By so doing, a coated steel panel for the test was obtained.
Next, using a black oil paint pen (Product Name: Mckee Care, a product of Zebra Co., Ltd.), a line was painted on the surface of the coated steel panel, and dried at 25° C. for 24 hours.
Subsequently, the painted line was evenly divided into seven equal areas. Each area was rubbed with an absorbent cotton that had been impregnated with, but to a degree which would not allow a leakage of, the industrial use cleanser of Examples 14, 14A, and 14B, or the oil agent of Comparative Examples 10, 11, 11A, and 11B, while loading a pressure of about 200 g in a reciprocating manner thirty times. From the proportion of the ink of the line painted with the oil paint pen which had been able to be removed by this removal operation, the cleansing properties of the respective industrial use cleansers of Examples 14, 14A, and 14B, or the respective oil agents of Comparative Examples 10, 11, 11A, and 11B, as the agent to remove the oil soluble colorant, were evaluated by eye in accordance with the following criteria.
<Evaluation Criteria of Cleansing Properties>
Excellent: High cleansing properties, meaning that a proportion of 75 to 100% in the line painted with the oil paint pen on the coated steel panel was able to be removed.
Good: Relatively high cleansing properties, meaning that a proportion of 50 to 75% in the line painted with the oil paint pen on the coated steel panel was able to be removed.
Moderate: Some cleansing properties, meaning that only a proportion of 25 to 50% in the line painted with the oil paint pen on the coated steel panel was able to be removed.
Poor: Weak cleansing properties, meaning that only a proportion of 0 to 25% in the line painted with the oil paint pen on the coated steel panel was able to be removed.
The cleansing properties and the low corrosion properties of the respective industrial use cleansers as an agent to remove an oil soluble colorant for a coated steel panel were evaluated in the same manner as those of the industrial use cleanser in Example 14. […]

[4] = Moisturizing properties of cosmetic preparation compositions (massage oil, panel); format: in vivo, human; set-up: key: Good: Very soft and moistened touch was felt.; Moderate: Soft and moistened touch was felt.; Poor: No moistened touch was felt; settings: neat cosmetic preparation composition (massage oil); 0.05 g, rubbed twenty times, wiped; seven panelists
Method: In Example 12, the PDO diisostearate obtained from Synthesis Example 1 was used as a cosmetic preparation composition (moisturizing ingredient) for a moisturizing cosmetic preparation (massage oil), and the moisturizing properties and the feeling of use thereof were evaluated.
The insides of the arms of seven panelists were washed with soap and water, and in addition, the washed surfaces were wiped with ethanol and naturally dried. Thereafter, each of the thus washed surfaces was evenly divided into eight equal areas, to which 0.05 g of the respective cosmetic preparation compositions of Example 12, and Comparative Examples 4 to 7 and 4A to 4C, was applied and massage was done by gently rubbing with a finger twenty times. Thereafter, the area was wiped with a dry cloth. On completion of this wiping, the moisturizing properties and the feeling of use of the respective cosmetic preparation compositions were evaluated in accordance with the same criteria as those of the moisturizing gels of Examples 6 to 8 mentioned above.

[5] = Viscosity by stress-controlled rheometer at 20° C.; format: physicochemical
Method: (§1) Next, the viscosity and the friction coefficient of the cosmetic preparation compositions of Example 12 and Comparative Examples 4 to 7 and 4A to 4C were measured.
The viscosity was measured by using a stress-controlled rheometer (Product No. RheoStress RS1, with a C60/2 Ti sensor, a product of Haake Company) at 20° C.

[6] = Friction coefficient on artificial leather (friction tester); format: physicochemical; settings: 5 μL on artificial leather, pressure of 100 g
Method: as §1
The friction coefficient was measured by such a way that: 5 μL of each cosmetic preparation composition was applied to the surface of an artificial leather (Product Name: Supplale, a product of Idemitsu Technofine Co., Ltd.), and the applied surface was measured for the friction coefficient and the change in the value of the friction coefficient, by using a friction tester (Type: TL201Ts, a product of Trinity-Lab Co., Ltd.) with a pressure of 100 g.

[7] = Oxidative stability by conductometric determination method (CDM, Rancimat); format: physicochemical; settings: 3 g, 120° C., air flow 8 L/h
Method: Furthermore, the oxidative stability was compared between the cosmetic preparation compositions of Example 12 and Comparative Example 4. Specifically speaking, these cosmetic preparation compositions were evaluated for the oxidative stability by a conductometric determination method (CDM method). […] A greater increase in the conductivity per unit time means a lower oxidative stability of the cosmetic preparation composition. Conversely, a smaller increase in the conductivity per unit time means a higher oxidative stability of the cosmetic preparation composition. The conductivity was measured by using a rancimat instrument (Type: Rancimat 743, a product of Metrohm-Sibata Ltd.) in a condition where 3 g of the sample was examined under heating at 120° C. with an air flow rate of 8 L/h.

[8] = 0.01 g airtight in Finn Chamber 24 hours, skin observed 1 hour after removal, seven panelists

PDO-C8/C10=50:50 diester [Example 13B]
Cleansing properties [1]: Good (Relatively high cleansing properties, meaning that a proportion of 50 to 75% in the line painted with the oil paint pen was able to be removed.) | Low irritation properties [2, 8]: Good | Cleansing properties [3]: Good (Relatively high cleansing properties, meaning that a proportion of 50 to 75% in the line painted with the oil paint pen on the coated steel panel was able to be removed.)

CCCCCCCCCCCCCCCCCC(=O)OCCCOC(=O)CCCCCCCCCCCCCCCCC [Comparative Example 4A, PDO distearate]
Moisturizing properties [4]: Moderate | Viscosity (mPa · s) (20° C.) [5]: Not measurable

PDO diisostearate [Example 12]
Moisturizing properties [4]: Good | Viscosity (mPa · s) (20° C.) [5]: 80.0 mPa · s | Changed value of friction coefficient [6]: 0.0045 | Friction coefficient [6]: 0.140 | Conductivity (CDM method) after 5 hours ([7]; after 5 hours): 17 μS/cm | Conductivity (CDM method) after 10 hours ([7]; after 10 hours): 45 μS/cm | Conductivity (CDM method) after 15 hours ([7]; after 15 hours): 83 μS/cm | Conductivity (CDM method) after 20 hours ([7]; after 20 hours): 127 μS/cm

CC(CCC(C(=O)OCCCOC(=O)C(CCC(C)CC(C)(C)C)C(C)CC(C)(C)C)C(C)CC(C)(C)C)CC(C)(C)C (centres unmarked) [Comparative Example 4B]
Moisturizing properties [4]: Good | Viscosity (mPa · s) (20° C.) [5]: 1003 mPa · s | Changed value of friction coefficient [6]: 0.0080 | Friction coefficient [6]: 0.170

PDO-C8/C10 diester [Example 13]
Cleansing properties [1]: Excellent (High cleansing properties, meaning that a proportion of 75 to 100% in the line painted with the oil paint pen was able to be removed.) | Low irritation properties [2, 8]: Good | Cleansing properties [3]: Excellent (High cleansing properties, meaning that a proportion of 75 to 100% in the line painted with the oil paint pen on the coated steel panel was able to be removed.)

PDO-Garbett isostearic acid diester [Comparative Example 4C]
Moisturizing properties [4]: Poor | Viscosity (mPa · s) (20° C.) [5]: 57.5 mPa · s | Changed value of friction coefficient [6]: 0.0056 | Friction coefficient [6]: 0.147

CCCCCCCC(=O)OCCCOC(=O)CCCCCCC [Example 13A, PDO-di-n-Octanoic Acid Ester]
Cleansing properties [1]: Excellent (High cleansing properties, meaning that a proportion of 75 to 100% in the line painted with the oil paint pen was able to be removed.) | Low irritation properties [2, 8]: Moderate | Cleansing properties [3]: Excellent (High cleansing properties, meaning that a proportion of 75 to 100% in the line painted with the oil paint pen on the coated steel panel was able to be removed.)

PDO-C8/C10=25:75 diester [Example 13C]
Cleansing properties [1]: Moderate (Some cleansing properties, meaning that only a proportion of 25 to 50% in the line painted with the oil paint pen was able to be removed.) | Low irritation properties [2, 8]: Good | Cleansing properties [3]: Moderate (Some cleansing properties, meaning that only a proportion of 25 to 50% in the line painted with the oil paint pen on the coated steel panel was able to be removed.)

CCO [Comparative Example 10, ethanol, reference compound]
Cleansing properties [3]: Excellent (High cleansing properties, meaning that a proportion of 75 to 100% in the line painted with the oil paint pen on the coated steel panel was able to be removed.)

CC(C)CCCCCCOC(=O)CCCCCC(C)C [Comparative Example 8, isononyl isononanoate, reference compound]
Cleansing properties [1]: Good (Relatively high cleansing properties, meaning that a proportion of 50 to 75% in the line painted with the oil paint pen was able to be removed.) | Condition of the skin of the airtightly applied part ([2]; 0.01 g airtight in Finn Chamber 24 hours, skin observed 1 hour after removal): a notable rash was found | Low irritation properties [2, 8]: Poor

CCCCCCCCCC(=O)OCCCOC(=O)CCCCCCCCC [Example 13D, PDO-di-n-decanoic acid ester]
Cleansing properties [1]: Poor (Weak cleansing properties, meaning that only a proportion of 0 to 25% in the line painted with the oil paint pen was able to be removed.) | Low irritation properties ([2]; in vivo): Good | Cleansing properties [3]: Poor (Weak cleansing properties, meaning that only a proportion of 0 to 25% in the line painted with the oil paint pen on the coated steel panel was able to be removed.)

CC(C)CCCC(C)CCCC(C)CCCCC(C)CCCC(C)CCCC(C)C (centres unmarked) [Comparative Example 5, squalane]
Moisturizing properties [4]: Good | Viscosity (mPa · s) (20° C.) [5]: 36.0 mPa · s | Changed value of friction coefficient [6]: 0.0062 | Friction coefficient [6]: 0.155
